From patent US6746668B2, “Apo-2 ligand” (Genentech, Inc., priority 1996, dated 2004)

Columns and labels:
[1] = system: 9D cells (EBV-transformed human peripheral blood B cells); assay: Apoptosis by FACS (PI / FITC-annexin V), 9D cells; type: cell-based; conditions: 24 hours, CH11 1 μg/ml
Protocol: (§1) The effects of the Apo-2 ligand on the 9D cells, as well as on Raji cells (human Burkitt's lymphoma B cell line, ATCC CCL 86) and Jurkat cells (human acute T cell leukemia cell line, ATCC TIB 152) were further analyzed by FACS. The FACS analysis was conducted, using established criteria for apoptotic cell death, namely, the relation of fluorescence staining of the cells with two markers: (a) propidium iodide (“PI”) dye, which stains apoptotic but not live cells, and (b) a fluorescent derivative of the protein, annexin V, which binds to the exposed phosphatidylserine found on the surface of apoptotic cells, but not on live cells [Darzynkiewicz et al., Methods in Cell Biol., 41:15-38 (1994); Fadok et al., J. Immunol., 148:2207-2214 (1992); Koopman et al., Blood, 84:1415-1420 (1994)].
(§2) The 9D cells (FIG. 2B), Raji cells (FIG. 2C), and Jurkat cells (FIG. 2D) were incubated (1×10^6 cells/well) for 24 hours with a media control (left panels), Apo-2 ligand (3 μg/ml, prepared as described in Example 3) (center panels), or […], CH11 (1 μg/ml) (right panels). The cells were then washed, stained with PI and with […] (FITC)-conjugated annexin V (purchased from Brand Applications) and analyzed by flow cytometry. […]

[2] = system: Raji cells (human Burkitt's lymphoma B cell line); assay: Apoptosis by FACS (PI / FITC-annexin V), Raji cells; type: cell-based; conditions: 24 hours, CH11 1 μg/ml
Protocol: as §1, §2

[3] = system: Jurkat cells (human acute T cell leukemia cell line); assay: Apoptosis by FACS (PI / FITC-annexin V), Jurkat cells; type: cell-based; conditions: 24 hours, CH11 1 μg/ml
Protocol: as §1, §2

[4] = system: HeLa (human cervical carcinoma); assay: Apoptosis by FACS, HeLa cells; type: cell-based
Protocol: as §2, with “cytometry. Cells negative for both PI and annexin V staining (quadrant 3) represent live cells; PI-negative, annexin V-positive staining cells (quadrant 4) represent early apoptotic cells; PI-positive, annexin V-positive staining cells (quadrant 2) represent primarily cells in late stages of apoptosis.” for “cytometry.”
(§3) In the assay, 1×10^6 cells of each cell line were incubated for 24 hours with a media control, Apo-2 ligand (3 μg/ml, prepared as described in Example 3), or anti-Apo-1 monoclonal antibody, CH11 (1 μg/ml). Following the incubation, apoptosis was measured by FACS analysis, as described in Example 4.

[5] = system: MCF7 (human breast carcinoma); assay: Apoptosis by FACS, MCF7 cells; type: cell-based
Protocol: as §2, with “cytometry. Cells negative for both PI and annexin V staining (quadrant 3) represent live cells; PI-negative, annexin V-positive staining cells (quadrant 4) represent early apoptotic cells; PI-positive, annexin V-positive staining cells (quadrant 2) represent primarily cells in late stages of apoptosis.” for “cytometry.”
as §3

[6] = system: U-937 (human hystiocytic lymphoma); assay: Apoptosis by FACS, U-937 cells; type: cell-based
Protocol: as §2, with “cytometry. Cells negative for both PI and annexin V staining (quadrant 3) represent live cells; PI-negative, annexin V-positive staining cells (quadrant 4) represent early apoptotic cells; PI-positive, annexin V-positive staining cells (quadrant 2) represent primarily cells in late stages of apoptosis.” for “cytometry.”
as §3

[7] = system: A549 (human lung carcinoma); assay: Apoptosis by FACS, A549 cells; type: cell-based
Protocol: as §2, with “cytometry. Cells negative for both PI and annexin V staining (quadrant 3) represent live cells; PI-negative, annexin V-positive staining cells (quadrant 4) represent early apoptotic cells; PI-positive, annexin V-positive staining cells (quadrant 2) represent primarily cells in late stages of apoptosis.” for “cytometry.”
as §3

[8] = system: ME-180 (human cervical carcinoma); assay: Apoptosis by FACS, ME-180 cells; type: cell-based
Protocol: as §2, with “cytometry. Cells negative for both PI and annexin V staining (quadrant 3) represent live cells; PI-negative, annexin V-positive staining cells (quadrant 4) represent early apoptotic cells; PI-positive, annexin V-positive staining cells (quadrant 2) represent primarily cells in late stages of apoptosis.” for “cytometry.”
as §3

[9] = system: 293 (adenovirus-transformed human embryonic kidney cells); assay: Apoptosis by FACS, 293 cells; type: cell-based
Protocol: as §2, with “cytometry. Cells negative for both PI and annexin V staining (quadrant 3) represent live cells; PI-negative, annexin V-positive staining cells (quadrant 4) represent early apoptotic cells; PI-positive, annexin V-positive staining cells (quadrant 2) represent primarily cells in late stages of apoptosis.” for “cytometry.”
as §3

[10] = system: peripheral blood B lymphocytes; assay: Apoptosis by FACS, peripheral blood B cells; type: cell-based, human; conditions: for % apoptotic cells: 3 days, Apo-2L 3 μg/ml, mean ±SE
Protocol: Peripheral blood mononuclear cells (“PBMC”) were isolated from the blood of human donors by Ficoll density gradient centrifugation using Lymphocyte Separation Medium (LSM®, Organon Teknika). An isolated population of T cells was prepared from the PBMC by removal of B cells through surface Ig binding to an anti-Ig column and removal of monocytes through Fc receptor binding to an Ig column (R & D Systems). An isolated population of B cells was prepared from the PBMC by complement-mediated elimination of T cells reacted with the anti-CD3 antibody produced by the OKT3 myeloma (ATCC, CRL 8001) and of monocytes reacted with a monocyte-specific antibody produced by the 4F2C13 hybridoma (ATCC, HB 22). Additional monocyte removal was accomplished by adherence to plastic.
The freshly isolated peripheral blood B or T cells (1×10^6 cells/well) were cultured for 3 days in the presence of a media control or Apo-2 ligand (3 μg/ml, prepared as described in Example 3). For activation, B cells were treated simultaneously with lipopolysaccharide ([…], 1 μg/ml), and T cells were treated with phorbol myristate acetate (“PMA”, 10 ng/ml) plus ionomycin (1 μg/ml) (Sigma). For interleukin-2 (“IL-2”) pretreatment, T cells were cultured for 3-5 days in the presence of IL-2 (50 U/ml) (Genzyme) before exposure to Apo-2 ligand. Apoptosis was determined using FACS analysis essentially as described above in Example 4. However, B cells were gated by anti-CD19/CD20 antibodies (Jackson Immunoresearch), and T cells were gated by anti-CD4/CD8 antibodies (Jackson Immunoresearch). The results are shown in Table 2 below, representing means ±SE of independent experiments [B lymphocytes—9 experiments; T lymphocytes—8 experiments; T lymphocytes plus IL-2-5 experiments], in which 50,000 cells were analyzed per data point. Statistical analysis was performed using the student t-test. In Table 2, a=p<0.05 and b=p<0.02 relative to the respective control.

[11] = system: peripheral blood T lymphocytes; assay: Apoptosis by FACS, peripheral blood T cells; type: cell-based, human; conditions: for % apoptotic cells: Apo-2L 3 μg/ml, mean ±SE
Jurkat cells = assay: Internucleosomal DNA fragmentation, Jurkat cells; type: cell-based, human; conditions: 6 hours, Apo-2 ligand 3 μg/ml
Protocol: (§4) The activation of internucleosomal DNA fragmentation by Apo-2 ligand was also analyzed. Jurkat cells (left lanes) and 9D cells (right lanes) were incubated (2×10^6 cells/well) for 6 hours with a media control or Apo-2 ligand (3 μg/ml, prepared as described in Example 3), The DNA was then extracted from the cells and labeled with ^32P-ddATP using terminal transferase. The labeled DNA samples were subjected to electrophoresis on 2% agarose gels and later analyzed by autoradiography [Moore et al., Cytotechnology, 17:1-11 (1995)]. […] Such DNA fragmentation is characteristic of apoptosis [Cohen, Advances in Immunol., 50:55-85 (1991)].

9D cells [12] = assay: Internucleosomal DNA fragmentation, 9D cells; type: cell-based, human; conditions: 6 hours, Apo-2 ligand 3 μg/ml
Protocol: as §4

9D cells [13] = assay: Time course and dose-dependence of cell death (dead/live counts, hemocytometer), 9D cells; type: cell-based, human
Protocol: To examine the time-course of the Apo-2 ligand apoptotic activity, 9D cells were incubated in microtiter dishes (5×10^4 cells/well) with a media control or Apo-2 ligand (3 μg/ml, prepared as described in Example 3) for a period of time ranging from 0 hours to 50 hours. Following the incubation, the numbers of dead and live cells were determined by microscopic examination using a hemocytometer.
To determine dose-dependency of Apo-2 ligand-induced cell death, 9D cells were incubated (5×10^4 cells/well) for 24 hours with serial dilutions of a media control or Apo-2 ligand (prepared as described in Example 3). The numbers of dead and live cells following the incubation were determined as described above. The results are illustrated in FIG. 3B. Specific apoptosis was determined by subtracting the % apoptosis in the control from % apoptosis in Apo-2 ligand treated cells. Half-maximal activation of apoptosis occurred at approximately 0.1 μg/ml (approximately 1 nM), and maximal induction occurred at about 1 to about 3 μg/ml (approximately 10 to 30 nM).

[14] = Apo-2 ligand as compared to CH11 anti-Apo-1 antibody

Apo-2L: purified, soluble recombinant human Apo-2 ligand: His10-tagged residues 114-281 of SEQ ID NO:1, expressed in baculovirus-infected Sf9 cells (Example 3)
% apoptotic cells ([1]; Apo-2L 3 μg/ml, control 22.5): 92.4%
induction of apoptosis (annexin V binding, PI uptake), in words ([1]; Apo-2 ligand 3 μg/ml): induced apoptosis
% apoptotic cells ([2]; Apo-2L 3 μg/ml, control 35.9): 73.4%
induction of apoptosis (annexin V binding, PI uptake), in words ([2]; Apo-2 ligand 3 μg/ml): induced a similar response
% apoptotic cells ([3]; Apo-2L 3 μg/ml, control 5.9): 77.0%
induction of apoptosis (annexin V binding, PI uptake), in words ([3]; Apo-2 ligand 3 μg/ml): induced a similar response
% apoptotic cells ([4]; 24 hours, Apo-2L 3 μg/ml, CH11 1 μg/ml, control 5.3): 18.6%
sensitivity to induction of apoptosis [4, 14]: equally sensitive
% apoptotic cells ([5]; 24 hours, Apo-2L 3 μg/ml, CH11 1 μg/ml, control 39.9): 47.3%
sensitivity to induction of apoptosis [5, 14]: equally sensitive
% apoptotic cells ([6]; 24 hours, Apo-2L 3 μg/ml, CH11 1 μg/ml, control 3.6): 62.3%
sensitivity to induction of apoptosis [6, 14]: markedly more sensitive
% apoptotic cells ([7]; 24 hours, Apo-2L 3 μg/ml, CH11 1 μg/ml, control 16.5): 74.6%
sensitivity to induction of apoptosis [7, 14]: markedly more sensitive
sensitivity to induction of apoptosis [8]: quite sensitive
% apoptotic cells ([8]; 24 hours, Apo-2L 3 μg/ml, CH11 1 μg/ml, control 8.6): 80.7%
sensitivity to induction of apoptosis [9]: resistant
% apoptotic cells ([9]; 24 hours, Apo-2L 3 μg/ml, CH11 1 μg/ml, control 12.3): 12.2%
induction of apoptosis, in words ([10]; B cells activated by LPS): induced significant apoptosis
% apoptotic cells ([10]; B lymphocytes + LPS 1 μg/ml, control 44.8 ± 2.8): 55.9%
% apoptotic cells ([10]; B lymphocytes, no treatment, 9 experiments, control 40.1 ± 4.1): 53.2%
induction of apoptosis, in words ([10]; unstimulated B cells): induced significant apoptosis
induction of apoptosis, in words ([11]; T cells activated with PMA and ionomycin): induced significant apoptosis
% apoptotic cells ([11]; T lymphocytes + PMA 10 ng/ml / ionomycin 1 μg/ml, 3 days, control 40.3 ± 4.4): 54.2%
% apoptotic cells ([11]; T lymphocytes, IL-2 (50 U/ml, 3-5 days) pretreatment, 5 experiments, control 13.7 ± 1.2): 34.5%
% apoptotic cells ([11]; T lymphocytes, no treatment, 3 days, 8 experiments, control 6.3 ± 0.6): 8.2 ± 0.8%
sensitization to Apo-2 ligand-induced death, in words ([11]; peripheral T cells pretreated with IL-2): did sensitize
internucleosomal DNA fragmentation (Jurkat cells): induced internucleosomal DNA fragmentation
internucleosomal DNA fragmentation (9D cells [12]): induced internucleosomal DNA fragmentation
half-maximal activation of apoptosis (9D cells [13]; 24 hours, specific apoptosis (control subtracted)): approximately 0.1 μg/ml
EC50 (9D cells [13]; 24 hours, specific apoptosis (control subtracted), read-out: half-maximal activation of apoptosis): ~1 nM
time to maximal levels of cell death (9D cells [13]; Apo-2 ligand 3 μg/ml, 0 to 50 hours): ≤ 24 h
